We go through 43 molecules from the Deep4Chem optical property database.

A short description of this series: solvent given as SMILES.

With `CC1=[N+]2C(=c3c4c5ccccc5cc5cccc(c6cc(C)n(c36)[B-]2(F)F)c54)C=C1`, the emission maximum stood at 637 nm (in C1CCOC1); 637 nm (in CCCCCC); 637 nm (in CO); 639 nm (in CS(C)=O); 637 nm (in ClC(Cl)Cl); 638 nm (in ClCCl).

On to `N#CC(C#N)=Cc1ccc2c(c1)c1ccccc1n2-c1cc2ccccc2c2ccccc12`, for which the emission maximum (in CC#N) was 503 nm, the emission maximum (in CCCCC) is on record as 451 nm, the emission maximum (in Cc1ccccc1) came out at 445 nm and the emission maximum (in ClCCl) was 480 nm.

`c1ccc(N(c2ccccc2)c2ccc(-c3nc4ccccc4n3-c3ccccc3)cc2)cc1`: the emission maximum (in CC#N) is listed as 444 nm.

For the molecule `O=C1c2ccccc2-c2c(-c3cc(Br)ccc3O)[nH]c(=O)n21`, the emission maximum amounted to 475 nm (in CC#N), 492 nm (in CO) and 474 nm (in ClCCl).

For `CC(C)[Si](C#Cc1c2nsnc2c(C#C[Si](C(C)C)(C(C)C)C(C)C)c2nc3c4ccccc4c(=O)c4ccccc4c3nc12)(C(C)C)C(C)C`, the emission maximum (in ClCCl) is reported as 594 nm.

As to `CN1/C(=C/C=C(/C=C/C2=[N+](C)c3ccccc3C2(C)C)c2ccc(F)cc2)C(C)(C)c2ccccc21`, the emission maximum (in CCO) stood at 666 nm, the emission maximum (in CO) was 666 nm, the emission maximum (in CS(C)=O) was found to be 669 nm and the emission maximum (in O) stood at 662 nm.

Regarding `COC(=O)/C(C#N)=c1\s/c(=c2/s/c(=C(/C#N)C(=O)OC)c3cc(-c4ccc5c(c4)C(C)(C)c4ccccc4-5)sc23)c2sc(-c3ccc4c(c3)C(C)(C)c3ccccc3-4)cc12`, the emission maximum (in Cc1ccccc1) amounted to 682 nm.

For `Cc1cc2ccccc2c2c1c1ccccc1n2-c1ccc(N(c2ccccc2)c2ccccc2)cc1`, the emission maximum is given as 386 nm (in CCOC(C)=O), 428 nm (in CS(C)=O) and 404 nm (in ClCCl).

Turning to `CC[N+]1(CC)CN2C(=N1)C(C(=O)O)=Cc1ccc(C)cc12`, the emission maximum (in O) came out at 457 nm.

Regarding `O=c1oc2ccccc2c2c1c(=O)oc1ccc3ccc(O)cc3c12`, the emission maximum was 506 nm (in CS(C)=O) and 517 nm (in ClCCl).

On to `c1ccc(-c2cc(-c3ccccc3)cc(-c3ccccc3)c2)cc1`, for which the emission maximum (in C1COCCO1) is 354 nm.

`Nc1ccc2c(c1)C(=O)NC2=O` displayed an emission maximum (in C1CCOC1) of 445 nm; an emission maximum (in C1COCCO1) of 435 nm; an emission maximum (in CC#N) of 458 nm; an emission maximum (in CC(C)(C)O) of 501 nm; an emission maximum (in CC(C)=O) of 457 nm; an emission maximum (in CC(C)O) of 505 nm. Also, the emission maximum is on record as 520 nm (in CCO); 425 nm (in CCOCC); 470 nm (in CN(C)C=O); 518 nm (in CO); 540 nm (in O).

For `CCC1(CC)c2cc(B(c3c(C)cc(C)cc3C)c3c(C)cc(C)cc3C)ccc2-c2ccc(N(c3ccccc3)c3ccccc3)cc21`, the emission maximum is 482 nm (in C1CCOC1); 531 nm (in CC#N); 499 nm (in CC(C)=O); 423 nm (in CCCCCC); 532 nm (in CN(C)C=O); 448 nm (in Cc1ccccc1). Under “in ClC(Cl)Cl”, the emission maximum is 461 nm.

Turning to `CC(=O)OCOC(=O)CN(CC(=O)OCOC(C)=O)c1ccccc1OCCOc1cc(NC(=O)c2ccc3c(c2)C(=O)OC32c3cc(Cl)c(OC(C)=O)cc3Oc3cc(OC(C)=O)c(Cl)cc32)ccc1N(CC(=O)OCOC(C)=O)CC(=O)OCOC(C)=O`, for the setting “in O”, the emission maximum turned out to be 534 nm.

For `CCCCCCCCCCCCN(CCCCCCCCCCCC)c1ccc2c(c1)oc(=O)c1c(=O)oc3ccccc3c12`, the emission maximum worked out at 562 nm (in CS(C)=O) and 528 nm (in ClCCl).

The molecule `Cc1ccccc1-c1c2ccc(=[N+]3CCCC3)cc-2oc2cc(N3CCCC3)ccc12` came in with an emission maximum (in CCO) of 576 nm and an emission maximum (in ClCCl) of 573 nm.

Turning to `Oc1ccc2ccccc2c1/C=N/c1cc2ccccc2cc1/N=C/c1c(O)ccc2ccccc12`, the emission maximum (in CC#N) is 509 nm.

Take `CN(C)c1ccc(C2=CC(c3ccccc3)=[N+]3C2=Nc2c(-c4ccc(N(C)C)cc4)cc(-c4ccccc4)n2[B-]3(F)F)cc1`: the emission maximum (in Cc1ccccc1) is listed as 822 nm.

As to `CC(C)CCC[C@@H](C)[C@H]1CC[C@H]2[C@@H]3CC=C4C[C@@H](OC(=O)Oc5cc(/C=C/c6ccc(N(C)C)cc6)ccc5[N+](=O)[O-])CC[C@]4(C)[C@H]3CC[C@]12C`, the emission maximum runs as follows: (in C1CCCCC1) 503 nm; (in C1COCCO1) 573 nm; (in CCCCCCC) 503 nm; (in Cc1ccccc1) 554 nm.

Molecule `COc1ccc2c(c1)c1c(c3cc(OC)ccc32)=[N+]2C(=C(c3c(C)cc(C)cc3C)c3cc4c5cc(OC)ccc5c5ccc(OC)cc5c4n3[B-]2(F)F)C=1` registered an emission maximum (in C1CCCCC1) of 710 nm; an emission maximum (in C1CCOC1) of 713 nm; an emission maximum (in CC#N) of 711 nm; an emission maximum (in Cc1ccccc1) of 717 nm; an emission maximum (in ClCCl) of 713 nm.

`C[Si](C)(C)C#Cc1cc2ccc3cc(C#C[Si](C)(C)C)cc4ccc(c1)c2c34`: the emission maximum (in Cc1ccccc1) amounted to 407 nm.

Take `c1ccc(-c2nnc(-c3cc(-c4nnc(-c5ccccc5)o4)c(-n4c5ccccc5c5ccccc54)cc3-n3c4ccccc4c4ccccc43)o2)cc1`: the emission maximum is on record as 439 nm (in Cc1ccccc1) and 459 nm (in O=P(c1ccccc1)(c1ccccc1)c1ccccc1Oc1ccccc1P(=O)(c1ccccc1)c1ccccc1).

`CN(C)c1ccc2nc(-c3ccc(C=C4C(=O)c5ccccc5C4=O)cc3)sc2c1`: the emission maximum came to 535 nm (in C1CCCCC1) and 727 nm (in ClC(Cl)Cl).

Consider `Cc1ccc(/C2=c3\cc/c(o3)=C(\c3ccc(C)cc3)c3ccc([nH]3)-c3ccc4n3[P-](=O)(=O)[N+]3=C(C=CC3=C4c3cccs3)c3ccc2[nH]3)cc1`, for which, for the setting “in ClC(Cl)Cl”, the emission maximum was found to be 736 nm.

Turning to `O=S(=O)([O-])c1ccc(/C=C/c2ccc(-c3nnc(-c4ccc(/C=C/c5ccc(S(=O)(=O)[O-])cc5S(=O)(=O)[O-])cc4)o3)cc2)c(S(=O)(=O)[O-])c1`, the emission maximum by setting is: (in C1CCOC1) 416 nm; (in CC(C)=O) 415 nm; (in CN(C)C=O) 430 nm.

As for `CCCCCCCCOc1cc(/C=C/c2cc(OCCCCCCCC)c(/C=C/c3cc(OCCCCCCCC)c(/C=C/c4ccncc4)cc3OCCCCCCCC)cc2OCCCCCCCC)c(OCCCCCCCC)cc1/C=C/c1ccncc1`, under “in ClCCl”, the emission maximum was 570 nm.

For the setting “in Cc1ccccc1”, `COc1ccc(N(c2ccc(/C=C(\C)c3ccccc3)cc2)c2ccc(/C=C(\C)c3ccccc3)cc2)cc1` gave an emission maximum of 435 nm.

In the case of `Cc1cn2cc(-c3ccc(C#N)cc3)[n-][n+]2c1`, the emission maximum (in ClCCl) is reported as 518 nm.

In the case of `O=S(=O)(c1ccccc1)c1ccc(-c2ccc3c(c2)c2cc(-c4ccc(S(=O)(=O)c5ccccc5)cc4)ccc2n3-c2ccccc2)cc1`, the emission maximum is, setting by setting: (in CCCCCC) 377 nm; (in CN(C)C=O) 431 nm; (in CO) 434 nm; (in Cc1ccccc1) 381 nm; (in ClCCl) 395 nm.

For the molecule `F[B-]1(F)OC(c2ccccc2)=Cc2c3ccccc3c3ccccc3[n+]21`, where the note is “in ClC(Cl)Cl”, the emission maximum was 447 nm.

For `CCN1CCCc2cc3c(cc21)Oc1cc2c(cc1=N3)C(CS(=O)(=O)[O-])CC(C)(C)[N+]=2CCCC(=O)[O-]` (stereo unspecified), the emission maximum (in O) came out at 690 nm.

For the molecule `CC1(C)CC(=O)C2=C(C1)Oc1ccc3cc(O)ccc3c1C2c1ccccn1` (stereo unspecified), the emission maximum (in C1CCOC1) is listed as 374 nm; the emission maximum (in C1COCCO1) came to 377 nm; the emission maximum (in CC#N) is listed as 378 nm; the emission maximum (in CCCCCCC) was 359 nm; the emission maximum (in CCO) was 377 nm; the emission maximum (in CO) is on record as 377 nm. This molecule also registered an emission maximum (in O) of 378 nm.

As to `c1ccc2c(c1)c1ccccc1c1ccccc21`, where the note is “in ClCCl”, the emission maximum is given as 355 nm.

Take `C1=Nc2cccc3cccc(c23)N1`: the emission maximum by setting is: (in CC#N) 476 nm; (in CO) 485 nm; (in CS(C)=O) 482 nm; (in Cc1ccccc1) 472 nm.

`CC[N+](CC)=c1ccc2nc3c(cc(NCCC(=O)NC(C)C(=O)OC)c4ccccc43)oc-2c1` (stereo unspecified) returned an emission maximum (in CCO) of 672 nm and an emission maximum (in O) of 684 nm.

`CC(C)=CC(=O)c1cc2c(cc1F)NC(C)(C)CC2=O`: the emission maximum is, setting by setting: (in CC#N) 422 nm; (in CCO) 459 nm.

Regarding `F[B-]1(F)n2c(/C=C/c3ccc(C(=C(c4ccccc4)c4ccccc4)c4ccccc4)cc3)ccc2C(c2ccc(C(=C(c3ccccc3)c3ccccc3)c3ccccc3)cc2)=C2C=CC(/C=C/c3ccc(C(=C(c4ccccc4)c4ccccc4)c4ccccc4)cc3)=[N+]21`, the emission maximum (in C1CCOC1) is 685 nm.

Under “in CCOC(C)=O”, `C[Si](C)(C)c1cc2c(cc3ccc4cccc5ccc2c3c45)[nH]1` came in with an emission maximum of 406 nm.

For the setting “in ClC(Cl)Cl”, `CN(C)c1ccc(-c2ccc(-c3cc(-c4ccccc4)c(-c4ccccc4)c(-c4ccccc4)c3-c3ccccc3)s2)cc1` yielded an emission maximum of 419 nm.

For the molecule `O=S(=O)(O)c1cccc2cccc(Nc3ccccc3)c12`, the emission maximum reads like this: (in CCCCO) 477 nm; (in CCCO) 479 nm; (in CCO) 485 nm; (in CO) 490 nm; (in OCC(O)CO) 501 nm; (in OCCO) 495 nm.

Regarding `CN(C)c1ccc(C(=O)Nc2cccc(Br)c2)cc1`, the emission maximum is, setting by setting: (in C1CCCCC1) 338 nm; (in C1CCOC1) 455 nm; (in CC#N) 496 nm; (in CCOCC) 445 nm.

Where the note is “in ClCCl”, `CCCCCCCCOc1ccc(C2=C3C(C)=CC(C)=[N+]3[B-](F)(F)n3c(C)cc(C)c32)cc1` displayed an emission maximum of 513 nm.

For the setting “in ClCCl”, `CC(C)(C)c1ccc2c(c1)-c1c3c(c4c5c1-c1cc(C(C)(C)C)ccc1OB5Oc1ccc(C(C)(C)C)cc1-4)-c1cc(C(C)(C)C)ccc1OB3O2` had an emission maximum of 436 nm.
